Experimental findings from patent US20050261332A1, “Sulfonamides and uses thereof” (priority 2004, published 2005) are described below.

In the first experiment the target is T1, GHS-R (Homo sapiens, UniProt Q92847).
T1 construct: expressed in transfected cells; host or cells: COS-7 cells
T1 sequence (Q92847 whole entry, species assumed): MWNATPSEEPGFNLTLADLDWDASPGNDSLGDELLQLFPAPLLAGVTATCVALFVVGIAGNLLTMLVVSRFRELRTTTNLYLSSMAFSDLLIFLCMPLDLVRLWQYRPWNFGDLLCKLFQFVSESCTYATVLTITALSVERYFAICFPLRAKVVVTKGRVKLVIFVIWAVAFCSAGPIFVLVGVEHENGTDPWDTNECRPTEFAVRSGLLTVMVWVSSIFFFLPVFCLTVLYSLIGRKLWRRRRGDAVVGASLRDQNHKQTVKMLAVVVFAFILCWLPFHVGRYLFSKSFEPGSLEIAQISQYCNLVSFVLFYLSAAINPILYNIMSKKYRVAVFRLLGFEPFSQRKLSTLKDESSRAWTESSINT
The experiment in a line: GHS-R competition binding assay (Ki of GHS-R antagonizing compounds). The procedure, abridged:
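COS-7 cells expressing GHS-R (1×10^5 cells/well) competed against 25 pM ^125I-ghrelin for 3 hours at 4° C in 50 mM HEPES pH 7.4 with 1 mM CaCl2, 5 mM MgCl2, 0.1% BSA, bacitracin. Nonspecific binding with […]; bound radioactivity counted after washing and lysis. Ki=IC50/(1+L/Kd).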
Broadly, the Ki is the equilibrium dissociation constant of an inhibitor or competing ligand from its target. `CCN(CC)CCCS(=O)(=O)N[C@H](COCc1ccccc1)C(=O)NCc1ccc(-c2ccccc2-c2nnn(C(C)(C)C)n2)cc1` [Compound 155, (R)-3-Benzyloxy-N-[2′-(2-tert-butyl-2H-tetrazol-5-yl)-biphenyl-4-ylmethyl]-2-(3-diethylamino-propane-1-sulfonylamino)-propionamide] registered a Ki of 100 to 1000 nM.

In turn, `CN(C)CCS(=O)(=O)N[C@H](COCc1ccccc1)C(=O)N1CCC2(CC1)CN(S(C)(=O)=O)c1ccccc12` [Compound 128, (R)-N-(3-(benzyloxy)-1-(1-(methylsulfonyl)spiro[indoline-3,4′-piperidine]-1′-yl)-1-oxopropan-2-yl)-2-(dimethylamino)ethanesulfonamide] returned a Ki of 100 to 1000 nM.

Regarding `C=C(C)C(=O)OCCNC(=O)NCc1ccccc1-c1ccc(C(=O)[C@@H](CCc2ccccc2)NS(=O)(=O)CCN(CC)CC)cc1` [Compound 202, (R)-2-(3-((4′-(2-(2-(diethylamino)ethylsulfonamido)-4-phenylbutanoyl)biphenyl-2-yl)methyl)ureido)ethyl methacrylate], the Ki is 100 to 1000 nM.

Consider `CCN(C)CCS(=O)(=O)N[C@H](COCc1ccccc1)C(=O)N1CCC2(CC1)CN(S(C)(=O)=O)c1ccccc12` [Compound 130, (R)-N-(3-(benzyloxy)-1-(1-(methylsulfonyl)spiro[indoline-3,4′-piperidine]-1′-yl)-1-oxopropan-2-yl)-2-(ethyl(methyl)amino)ethanesulfonamide], for which the Ki was 100 to 1000 nM.

`CCN(CC)CCCS(=O)(=O)N[C@H](CCc1ccccc1)C(=O)NCc1ccc(-c2ccccc2-c2nn[nH]n2)cc1` [Compound 161, (R)-N-((2′-(2H-tetrazol-5-yl)biphenyl-4-yl)methyl)-2-(3-(diethylamino)propylsulfonamido)-4-phenylbutanamide]: the Ki lay in the range of 100 to 1000 nM.

`COCCCS(=O)(=O)N[C@H](COCc1ccccc1)C(=O)N1CCC2(CC1)CN(S(C)(=O)=O)c1ccccc12` [Compound 159, (R)-N-(3-(benzyloxy)-1-(1-(methylsulfonyl)spiro[indoline-3,4′-piperidine]-1′-yl)-1-oxopropan-2-yl)-3-methoxypropane-1-sulfonamide] showed a Ki of 100 to 1000 nM.

Consider `CCOC(=O)c1ccccc1-c1ccc(C(=O)[C@@H](CCc2ccccc2)NS(=O)(=O)CCCN(CC)CC)cc1` [Compound 184, (R)-ethyl 4′-(2-(3-(diethylamino)propylsulfonamido)-4-phenylbutanoyl)biphenyl-2-carboxylate], for which the inhibition constant Ki is greater than 1000 nM.

Consider `CCN(CC)CCCS(=O)(=O)N[C@H](CCc1ccccc1)C(=O)NCc1ccc(-c2ccccc2NC(=O)NC)cc1` [Compound 200, (R)-2-(3-(diethylamino)propylsulfonamido)-N-((2′-(3-methylureido)biphenyl-4-yl)methyl)-4-phenylbutanamide], for which the Ki was in the range of 100 to 1000 nM.

`CS(=O)(=O)N1CC2(CCN(C(=O)[C@@H](COCc3ccccc3)NS(=O)(=O)CCN3C4CCCC3CC4)CC2)c2ccccc21` [Compound 144, N-((R)-3-(benzyloxy)-1-(1-(methylsulfonyl)spiro[indoline-3,4′-piperidine]-1′-yl)-1-oxopropan-2-yl)-2-(8-azabicyclo[3.2.1]octan-8-yl)ethanesulfonamide] gave a Ki of 100 to 1000 nM.

On to `CCN(CC)CCS(=O)(=O)N[C@H](CCc1ccccc1)C(=O)c1ccc(-c2ccccc2CNC(=O)OC(C)(C)C)cc1` [Compound 194, (R)-tert-butyl (4′-(2-(2-(diethylamino)ethylsulfonamido)-4-phenylbutanoyl)biphenyl-2-yl)methylcarbamate], for which the Ki lay within 100 to 1000 nM.

`CCN(CC)CCCS(=O)(=O)N[C@H](CCc1ccccc1)C(=O)N1CCC2(CC1)CN(S(C)(=O)=O)c1ccccc12` [Compound 163, (R)-3-(diethylamino)-N-(1-(1-(methylsulfonyl)spiro[indoline-3,4′-piperidine]-1′-yl)-1-oxo-4-phenylbutan-2-yl)propane-1-sulfonamide] registered a Ki of less than 100 nM.

In turn, `NC(=O)c1ccccc1-c1ccc(CNC(=O)[C@@H](COCc2ccccc2)NS(=O)(=O)CCCCl)cc1` [Compound 153, (R)-4′-{[3-Benzyloxy-2-(3-chloro-propane-1-sulfonylamino)-propionylamino]-methyl}-biphenyl-2-carboxylic acid amide] showed an inhibitory constant (Ki) greater than 1000 nM.

`CCN(CC)CCS(=O)(=O)N[C@H](CCc1ccccc1)C(=O)c1ccc(-c2ccccc2CNC(=O)NC)cc1` [Compound 209, (R)-2-(diethylamino)-N-(1-(2′-((3-methylureido)methyl)biphenyl-4-yl)-1-oxo-4-phenylbutan-2-yl)ethanesulfonamide]: the Ki is less than 100 nM.

`CCN(CC)CCCS(=O)(=O)N[C@H](CCc1ccccc1)C(=O)c1ccc(-c2ccccc2CO)cc1` [Compound 168, (R)-3-(diethylamino)-N-(1-(2′-(hydroxymethyl)biphenyl-4-yl)-1-oxo-4-phenylbutan-2-yl)propane-1-sulfonamide] showed a Ki of less than 100 nM.

Take `CCN(CC)CCS(=O)(=O)N[C@H](CCc1ccccc1)C(=O)c1ccc(-c2ccccc2CNC(C)=O)cc1` [Compound 204, (R)-N-((4′-(2-(2-(diethylamino)ethylsulfonamido)-4-phenylbutanoyl)biphenyl-2-yl)methyl)acetamide]: the Ki was less than 100 nM.

`CCN(CC)CCCS(=O)(=O)N[C@H](CCc1ccccc1)C(=O)c1ccc(-c2ccccc2CN)cc1` [Compound 191, (R)-N-(1-(2′-(aminomethyl)biphenyl-4-yl)-1-oxo-4-phenylbutan-2-yl)-3-(diethylamino)propane-1-sulfonamide] came in with an inhibition constant (Ki) of 100 to 1000 nM.

Regarding `CCN(CC)CCCS(=O)(=O)N[C@H](COCc1ccccc1)C(=O)NCc1ccc(-c2ccccc2-c2noc(=S)[nH]2)cc1` [Compound 162, (R)-3-Benzyloxy-2-(3-diethylamino-propane-1-sulfonylamino)-N-[2′-(5-thioxo-4,5-dihydro-[1,2,4]oxadiazol-3-yl)-biphenyl-4-ylmethyl]-propionamide], the Ki is less than 100 nM.

As to `CS(=O)(=O)N1CC2(CCN(C(=O)[C@@H](COCc3ccccc3)NS(=O)(=O)CCN3CCCC3)CC2)c2ccccc21` [Compound 136, (R)-N-(3-(benzyloxy)-1-(1-(methylsulfonyl)spiro[indoline-3,4′-piperidine]-1′-yl)-1-oxopropan-2-yl)-2-(pyrrolidin-1-yl)ethanesulfonamide], the Ki is 100 to 1000 nM.

On to `CS(=O)(=O)N1CC2(CCN(C(=O)[C@@H](COCc3ccccc3)NS(=O)(=O)CCN3CCCCC3)CC2)c2ccccc21` [Compound 135, (R)-N-(3-(benzyloxy)-1-(1-(methylsulfonyl)spiro[indoline-3,4′-piperidine]-1′-yl)-1-oxopropan-2-yl)-2-(piperidin-1-yl)ethanesulfonamide], for which the inhibitory constant (Ki) was in the range of 100 to 1000 nM.

The compound `CCN(CC)CCCS(=O)(=O)N[C@H](CCc1ccccc1)C(=O)NCc1ccc(-c2ccccc2C(=O)NC)cc1` [Compound 179, (R)-4′-{[2-(3-Diethylamino-propane-1-sulfonylamino)-4-phenyl-butyrylamino]-methyl}-biphenyl-2-carboxylic acid methylamide] registered a Ki of 100 to 1000 nM.

Take `CCN(CC)CCCS(=O)(=O)N[C@H](CCc1ccccc1)C(=O)NCc1ccc(-c2ccccc2CCNC(=O)NC)cc1` [Compound 206, (R)-2-(3-(diethylamino)propylsulfonamido)-N-((2′-(2-(3-methylureido)ethyl)biphenyl-4-yl)methyl)-4-phenylbutanamide]: the Ki was less than 100 nM.

Compound `CC(C)NCCS(=O)(=O)N[C@H](COCc1ccccc1)C(=O)N1CCC2(CC1)CN(S(C)(=O)=O)c1ccccc12` [Compound 140, (R)-N-(3-(benzyloxy)-1-(1-(methylsulfonyl)spiro[indoline-3,4′-piperidine]-1′-yl)-1-oxopropan-2-yl)-2-(isopropylamino)ethanesulfonamide] gave a Ki greater than 1000 nM.

Take `CCN(CCS(=O)(=O)N[C@H](COCc1ccccc1)C(=O)N1CCC2(CC1)CN(S(C)(=O)=O)c1ccccc12)C(C)C` [Compound 133, (R)-N-(3-(benzyloxy)-1-(1-(methylsulfonyl)spiro[indoline-3,4′-piperidine]-1′-yl)-1-oxopropan-2-yl)-2-(ethyl(isopropyl)amino)ethanesulfonamide]: the inhibitory constant (Ki) is greater than 1000 nM.

`CCN(CC)CCCS(=O)(=O)N[C@H](CCc1ccccc1)C(=O)c1ccc(-c2ccccc2CNC(=O)NCCO)cc1` [Compound 198, (R)-3-(diethylamino)-N-(1-(2′-((3-(2-hydroxyethyl)ureido)methyl)biphenyl-4-yl)-1-oxo-4-phenylbutan-2-yl)propane-1-sulfonamide] returned a Ki of less than 100 nM.

The compound `CCN(CC)CCCS(=O)(=O)N[C@H](CCc1ccccc1)C(=O)c1ccc(-c2ccccc2NC(=O)NC)cc1` [Compound 171, (R)-3-(diethylamino)-N-(1-(2′-(3-methylureido)biphenyl-4-yl)-1-oxo-4-phenylbutan-2-yl)propane-1-sulfonamide] had a Ki of 100 to 1000 nM.

Another experiment deals with mice. The experiment in a line: fast refeed (fast-refeeding) assay in mice. The format is in vivo. Here is the method: In vivo assays. Exemplary in vivo assays include the fast-refeeding assay described in Example 1 and as follows.
Food is removed at 6 pm for an overnight (˜16 hour) fast. Beginning at 10 am on the next morning, mice are administered with either vehicle (e.g., saline+acetic acid, pH=5) or the compound of interest. Mice are then returned to their home cages and pre-weighed food (approximately 90 grams) is immediately returned to the food hoppers in each cage. The weight of the food remaining in the food hoppers is measured at 30 minutes, 1 hour, 2 hours, and 4 hours post compound/vehicle administration. Final body weights are then recorded for the mice.
Consider “substance P: substance P; found to modulate GHS-R activity and to alter feeding activity of mice”, for which the “feeding activity of mice in the fast refeed assay” value is listed as “alters feeding activity”.
